Data: US4512986A, “Progrestationally active steroids” (priority 1983, dated 1985)
Where “and” joins values, the source holds several entries; their conditions need not be identical. Equal values may be shown once. Entries after “also recorded” stand apart in the source; their conditions may differ.

Tests used:
[1] = system: uterine endometrium of estrone-primed immature rabbits; assay: Clauberg assay (progestational activity, McPhail); format: in vivo, rabbit (New Zealand White); conditions: for McPhail Index (0-4) (X ± S.D.): 0 none, 4 maximal
cycling rats = assay: Blockade of ovulation in rats; format: in vivo, rat (Charles River CD); conditions: for No. Rats Ovulated (of rats treated) / No. of Oviductal Eggs in Rats that Ovulated (X ± S.D.): single sc
Excerpt: The treated rats were sacrificed on the morning of expected estrus and eggs, if present, were flushed from the oviducts and counted. | *This assay employs cycling Charles River CD rats. For methods refer to | Beattie, C. W. and A. Corbin, Endocrinology 97, 885, 1975. […] | diestrus. Rats were sacrificed 43 to 44 hr later on the morning of | expected estrus. Eggs, if present, were flushed from oviducts and counted | under a stereomicroscope.

## C#C[C@]1(C(C)=O)CC[C@H]2[C@@H]3CCC4=CC(=O)CC[C@]4(C)[C@H]3CC[C@@]21C [17α-Ethynylprogesterone, 17α-ethynylprogesterone]
[1]; compound given orally, progesterone sc
  progestational potency relative to subcutaneous progesterone, in words: progestational activity equivalent to subcutaneous progesterone
[1]; compound given sc
  progestational potency relative to progesterone (sc): 13 times
[1]; oral, 10 μg/rabbit daily
  Uterine Weight (X ± S.D.): 0.94 ± 0.09 g
  McPhail Index (0-4) (X ± S.D.): 0.08 ± 0.11
[1]; oral, 20 μg/rabbit daily
  Uterine Weight (X ± S.D.): 0.98 ± 0.18 g
  McPhail Index (0-4) (X ± S.D.): 0.04 ± 0.06
[1]; oral, 50 μg/rabbit daily
  Uterine Weight (X ± S.D.): 0.86 ± 0.02 g
  McPhail Index (0-4) (X ± S.D.): 0.00 ± 0.00
[1]; oral, 100 μg/rabbit daily
  Uterine Weight (X ± S.D.): 1.79 ± 0.63 g and 1.13 ± 0.24 g
[1]; oral, 100 μg/rabbit/day
  progestational response, in words: inactive; also recorded: near the oral threshold dose
[1]; oral, 200 μg/rabbit daily
  Uterine Weight (X ± S.D.): 1.67 ± 0.33 g
  McPhail Index (0-4) (X ± S.D.): 1.40 ± 1.50
[1]; oral, 400 μg/rabbit daily
  Uterine Weight (X ± S.D.): 1.70 ± 0.50 g
  McPhail Index (0-4) (X ± S.D.): 1.80 ± 1.70
[1]; oral, 200 and 400 μg/rabbit/day
  progestational response, in words: partial progestational responses
[1]; sc, 2.5 μg/rabbit daily
  Uterine Weight (X ± S.D.): 0.90 ± 0.06 g
  McPhail Index (0-4) (X ± S.D.): 0.17 ± 0.23
[1]; sc, 2.5 μg/rabbit/day
  progestational response, in words: inactive
[1]; sc, 5 μg/rabbit daily
  Uterine Weight (X ± S.D.): 1.63 ± 0.45 g
  McPhail Index (0-4) (X ± S.D.): 1.50 ± 0.54
[1]; sc, 5 μg/rabbit/day
  progestational response, in words: partial progestational response
[1]; sc, 10 μg/rabbit daily
  Uterine Weight (X ± S.D.): 3.23 ± 0.83 g
  McPhail Index (0-4) (X ± S.D.): 3.83 ± 0.12
[1]; sc, 20 μg/rabbit daily
  Uterine Weight (X ± S.D.): 4.41 ± 0.33 g
  McPhail Index (0-4) (X ± S.D.): 4.00 ± 0.00
[1]; sc, 50 μg/rabbit daily
  Uterine Weight (X ± S.D.): 5.54 ± 0.18 g
  McPhail Index (0-4) (X ± S.D.): 4.0 ± 0.00
[1]; sc, 100 μg/rabbit daily
  Uterine Weight (X ± S.D.): 4.19 ± 0.22 g
  McPhail Index (0-4) (X ± S.D.): 4.0 ± 0.00
[1]; sc, 200 μg/rabbit daily
  Uterine Weight (X ± S.D.): 4.99 ± 0.89 g
  McPhail Index (0-4) (X ± S.D.): 4.0 ± 0.00
[1]; sc, 400 μg/rabbit daily
  Uterine Weight (X ± S.D.): 5.90 ± 1.75 g
  McPhail Index (0-4) (X ± S.D.): 4.0 ± 0.00
[1]; sc, 10 and 20 μg/rabbit/day
  progestational response, in words: maximal progestational responses
[1]; sc, 50, 100, 200 and 400 μg/rabbit/day
  progestational response, in words: full progestational responses
Cycling rats; 500 μg progesterone, 100, 250 or 500 μg 17α-ethynylprogesterone
  ovulation, in words: ovulation was blocked in most rats
Cycling rats; 100 or 250 μg progesterone, 50 μg 17α-ethynylprogesterone
  ovulation, in words: ovulated in a normal fashion
Cycling rats; comparison with literature
  potency in blocking ovulation relative to (±)-norgestrel, in words: equipotent with (±)-norgestrel
Cycling rats; sc
  potency in blocking ovulation relative to progesterone, in words: about five times as potent as progesterone
Cycling rats; 50 μg/rat
  No. Rats Ovulated (of rats treated): 4/5
  No. of Oviductal Eggs in Rats that Ovulated (X ± S.D.): 10.5 ± 2.1
Cycling rats; 100 μg/rat
  No. Rats Ovulated (of rats treated): 1/5
  No. of Oviductal Eggs in Rats that Ovulated (X ± S.D.): 3.0
Cycling rats; 250 μg/rat
  No. Rats Ovulated (of rats treated): 1/5
  No. of Oviductal Eggs in Rats that Ovulated (X ± S.D.): 6.0
Cycling rats; 500 μg/rat
  No. Rats Ovulated (of rats treated): 0/5
  No. of Oviductal Eggs in Rats that Ovulated (X ± S.D.): 0.0
